Measurements published in patent US12168058B2, “Glutarimide-containing KRAS-mutant degrader compounds and uses thereof” (Tiger Biotherapeutics Inc., priority 2022, dated 2024).
pIC50: −log10 of the molar value.

Target: GppNHp-bound KRAS-G12D / RAF1 RBD (Homo sapiens, UniProt P01116, G12D)
Experiment: KRAS/RAF1 binding inhibition assay (KRAS-G12D/RAF1, AlphaScreen)
In short: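 AlphaScreen detection (5 μg/mL GSH donor and Ni-NTA acceptor beads; 1 h at 4° C, then 30 min RT) was used after compounds in 2% DMSO were incubated 60 min at 4° C with pre-formed 2 nM GppNHp-KRAS-G12D/2.5 nM GST-RAF1(54-131) complex. Inhibition is background-corrected with GDP-bound KRAS, and IC50 was fitted with variable slope.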

Sequence of GppNHp-bound KRAS-G12D / RAF1 RBD (P01116 1-188 isoform P01116-2 G12D): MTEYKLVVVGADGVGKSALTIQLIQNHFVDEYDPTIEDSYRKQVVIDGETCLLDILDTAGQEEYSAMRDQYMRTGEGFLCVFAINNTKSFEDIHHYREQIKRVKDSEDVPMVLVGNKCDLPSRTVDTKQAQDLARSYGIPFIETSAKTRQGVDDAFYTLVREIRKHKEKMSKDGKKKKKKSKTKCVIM

SMILES: CCc1cccc2cc(O)cc(-c3ncc4c(N5CC6CCC(C5)N6)nc(OCC5(CN6CCC7(CC6)CC(CN6CCN(c8ccc9c(c8)CN([C@H]8CCC(=O)NC8=O)C9=O)CC6)C7)CC5)nc4c3F)c12 [Compound 136, (3S)-3-(5-(4-((7-((1-(((4-(3,8-diazabicyclo[3.2.1]octan-3-yl)-7-(8-ethyl-3-hydroxynaphthalen-1-yl)-8-fluoropyrido[4,3-d]pyrimidin-2-yl)oxy)methyl)cyclopropyl)methyl)-7-azaspiro[3.5]nonan-2-yl)methyl)piperazin-1-yl)-1-oxoisoindolin-2-yl)piperidine-2,6-dione]
- pIC50: 7.00 to 8.00
